According to patent publication US11999727B2 (Tango Therapeutics, Inc., priority 2020, dated 2024):

Legend:
PRMT5 [1] = biological target: T1, PRMT5 (Homo sapiens, UniProt O14744); experiment: PRMT5 biochemical IC50 assay with SAM as cofactor; conditions: PRMT5, SAM as cofactor; read-out: SAM IC50
T1 construct: purchased Viva (custom protein)

PRMT5 [2] = biological target: T1, PRMT5; experiment: PRMT5 biochemical IC50 assay with no cofactor; conditions: PRMT5, no cofactor; read-out: No Cofactor/rel IC50
Text: Table 1 indicates IC50 values (μM) against PRMT5 for exemplary compounds in the presence of SAM as cofactor, with no cofactor, and with MTA as cofactor, respectively (columns 4-6). […] Ki values can be calculated from the IC50 values as described in the Examples section. As detailed in the Examples section, for the assay performed in the presence of SAM, IC50=Ki×1.5 (Ki=IC50/1.5).

PRMT5 [3] = biological target: T1, PRMT5; experiment: PRMT5 biochemical IC50 assay with MTA as cofactor; conditions: PRMT5, MTA as cofactor; read-out: MTA IC50
[4] = test system: HAP1 MTAP-intact cell line; experiment: SDMA in-cell western assay, HAP1 MTAP-intact; format: cell-based; conditions: Homo sapiens, HAP1, SDMA in-cell western, HAP1 MTAP-intact; read-out: MTAP HAP1 intact IC50
Outline: (§1)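 Isogenic HAP1 pair: the MTAP-intact line expresses endogenous MTAP, and the deleted line is MTAP-null. Symmetric dimethylarginine was detected by in-cell western and IC50 values derived for each line.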

[5] = test system: HAP1 MTAP-deleted cell line; experiment: SDMA in-cell western assay, HAP1 MTAP-deleted; format: cell-based; conditions: for IC50: Homo sapiens, HAP1, SDMA in-cell western, HAP1 MTAP-deleted, read-out: HAP1 MTAP deleted IC50; for MTAP intact/deleted ratio: IC50 ratio HAP1 MTAP-intact / HAP1 MTAP-deleted, SDMA in-cell western
Outline: as §1

[6] = test system: HAP1 MTAP-deleted cell line; experiment: Viability assay, MTAP-deleted cell line; format: cell-based; conditions: Homo sapiens, HAP1, viability assay, HAP1 MTAP-deleted; read-out: HAP1 MTAP deleted viability
Text: Table 1 additionally indicates IC50 values in a viability assay for the MTAP-deleted cell line (column 10), indicating the effect of treatment with compound on cell survival.

T1 sequence (O14744 whole entry): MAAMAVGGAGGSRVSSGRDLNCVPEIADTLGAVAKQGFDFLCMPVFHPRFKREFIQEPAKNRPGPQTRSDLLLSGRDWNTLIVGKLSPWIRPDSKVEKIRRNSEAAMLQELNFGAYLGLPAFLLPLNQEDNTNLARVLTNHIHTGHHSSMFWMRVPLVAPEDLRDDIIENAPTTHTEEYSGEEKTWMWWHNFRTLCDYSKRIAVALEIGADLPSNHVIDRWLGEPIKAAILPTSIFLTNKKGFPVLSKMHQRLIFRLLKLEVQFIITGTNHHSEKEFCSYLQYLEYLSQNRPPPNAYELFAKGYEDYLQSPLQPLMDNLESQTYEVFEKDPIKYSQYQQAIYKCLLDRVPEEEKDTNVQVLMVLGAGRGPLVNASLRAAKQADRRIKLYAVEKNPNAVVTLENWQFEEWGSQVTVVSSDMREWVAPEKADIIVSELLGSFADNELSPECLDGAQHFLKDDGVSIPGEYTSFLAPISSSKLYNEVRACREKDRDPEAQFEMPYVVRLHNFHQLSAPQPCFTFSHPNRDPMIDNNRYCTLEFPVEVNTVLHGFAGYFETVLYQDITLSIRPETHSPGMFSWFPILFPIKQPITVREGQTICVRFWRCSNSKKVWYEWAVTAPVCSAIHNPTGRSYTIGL
T1 sequence (Q9BQA1 whole entry partner): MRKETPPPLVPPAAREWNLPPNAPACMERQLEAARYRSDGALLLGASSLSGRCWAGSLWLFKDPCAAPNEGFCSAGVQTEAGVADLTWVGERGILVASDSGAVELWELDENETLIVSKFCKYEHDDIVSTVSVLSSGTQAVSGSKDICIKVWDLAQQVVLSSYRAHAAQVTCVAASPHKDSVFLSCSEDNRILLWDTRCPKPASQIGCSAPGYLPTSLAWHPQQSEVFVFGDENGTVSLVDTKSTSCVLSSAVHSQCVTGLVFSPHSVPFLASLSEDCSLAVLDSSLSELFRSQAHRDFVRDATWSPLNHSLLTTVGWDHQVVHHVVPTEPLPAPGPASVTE

| SMILES | IC50 (PRMT5 [1]) | IC50 (PRMT5 [2]) | IC50 (PRMT5 [3]) | IC50 [4] | IC50 [5] | MTAP intact/deleted ratio [5] | IC50 [6] |
| --- | --- | --- | --- | --- | --- | --- | --- |
| Cc1ncc(NC(=O)C(=O)N2C[C@H](C)CC[C@H]2c2ccc3c(c2)CCC(=O)N3)cc1Cl (single isomer, unassigned) [Compound 726] | 50 to 500 nM | < 50 nM | < 50 nM | > 1000 nM | < 100 nM | A (an IC50 ratio greater than or equal to 10 fold) | < 1000 nM |
| Cc1ncc(NC(=O)C(=O)N2C[C@@H](C)CC[C@@H]2c2ccc3c(c2)CCC(=O)N3)cc1Cl (single isomer, unassigned) [Compound 727] | > 500 nM | > 500 nM | > 500 nM | > 1000 nM | > 1000 nM | C (an IC50 ratio of less than 3 fold) | > 10000 nM |
| CCc1cc(NC(=O)C(=O)N2C[C@H](C)C(F)(F)C[C@H]2c2ccc(F)c(F)c2)cnc1N (single isomer, unassigned) [Compound 728] | > 500 nM | > 500 nM | > 500 nM | > 1000 nM | > 1000 nM | C (an IC50 ratio of less than 3 fold) | > 10000 nM |
| CCc1cc(NC(=O)C(=O)N2C[C@@H](C)CC[C@@H]2c2ccc3c(c2)CCC(=O)N3)cnc1N (single isomer, unassigned) [Compound 729] | > 500 nM | > 500 nM | > 500 nM | > 1000 nM | 100 to 1000 nM | A (an IC50 ratio greater than or equal to 10 fold) | 1000 to 10000 nM |
| Cc1nc2cc([C@@H]3CC[C@@H](C)CN3C(=O)C(=O)Nc3cnc(N)c(C)c3)ccc2s1 (single isomer, unassigned) [Compound 730] | > 500 nM | > 500 nM | > 500 nM | > 1000 nM | > 1000 nM | C (an IC50 ratio of less than 3 fold) | > 10000 nM |
| C[C@H]1CN(C(=O)C(=O)Nc2cncc(C(N)=O)c2)[C@H](c2ccc(F)cc2)CC1(F)F (single isomer, unassigned) [Compound 731] | 50 to 500 nM | 50 to 500 nM | < 50 nM | > 1000 nM | < 100 nM | A (an IC50 ratio greater than or equal to 10 fold) | 1000 to 10000 nM |
| CC(=O)Nc1ccc([C@@H]2CC[C@@H](C)CN2C(=O)C(=O)Nc2cnc(N)c(C)c2)s1 (single isomer, unassigned) [Compound 732] | 50 to 500 nM | 50 to 500 nM | < 50 nM | > 1000 nM | 100 to 1000 nM | A (an IC50 ratio greater than or equal to 10 fold) | 1000 to 10000 nM |
| Cc1cc(NC(=O)C(=O)N2C[C@@H](C)CC[C@@H]2c2ccc(C(N)=O)s2)cnc1N (single isomer, unassigned) [Compound 733] | 50 to 500 nM | < 50 nM | < 50 nM | 100 to 1000 nM | < 100 nM | A (an IC50 ratio greater than or equal to 10 fold) | < 1000 nM |
| Cc1cc(NC(=O)C(=O)N2C[C@@H](C)CC[C@@H]2c2cc(F)cc(F)c2)cnc1N (single isomer, unassigned) [Compound 734, N-(6-amino-5-methylpyridin-3-yl)-2-(2-(3,5-difluorophenyl)-5-methylpiperidin-1-yl)-2-oxoacetamide] | 50 to 500 nM | < 50 nM | < 50 nM | > 1000 nM | < 100 nM | A (an IC50 ratio greater than or equal to 10 fold) | 1000 to 10000 nM |
| Cc1cc(NC(=O)C(=O)N2C[C@H](C)C(F)(F)C[C@H]2c2ccccc2)cnc1N (single isomer, unassigned) [Compound 735] | < 50 nM | < 50 nM | < 50 nM | 100 to 1000 nM | < 100 nM | A (an IC50 ratio greater than or equal to 10 fold) | < 1000 nM |
| CCc1cc(NC(=O)C(=O)N2C[C@H](C)CC[C@H]2c2ccccc2)cnc1N (single isomer, unassigned) [Compound 736] | 50 to 500 nM | < 50 nM | < 50 nM | > 1000 nM | < 100 nM | A (an IC50 ratio greater than or equal to 10 fold) | < 1000 nM |
| COc1ncc(NC(=O)C(=O)N2C[C@@H](C)CC[C@@H]2c2cc(F)c(F)c(F)c2)cc1C(N)=O (single isomer, unassigned) [Compound 739] | > 500 nM | > 500 nM | > 500 nM | > 1000 nM | > 1000 nM | B (an IC50 ratio greater than or equal to 3 fold but lower than 10 fold) | > 10000 nM |
| C[C@@H]1CC[C@@H](c2ccc3c(c2)CNC3=O)N(C(=O)C(=O)Nc2cncc(C(N)=O)c2)C1 (single isomer, unassigned) [Compound 740, 5-(2-(5-methyl-2-(1-oxoisoindolin-5-yl)piperidin-1-yl)-2-oxoacetamido)nicotinamide] | 50 to 500 nM | 50 to 500 nM | < 50 nM | > 1000 nM | > 1000 nM | B (an IC50 ratio greater than or equal to 3 fold but lower than 10 fold) | 1000 to 10000 nM |
| C[C@H]1CC[C@H](c2ccc3c(c2)CNC3=O)N(C(=O)C(=O)Nc2cncc(C(N)=O)c2)C1 (single isomer, unassigned) [Compound 741, 5-(2-(5-methyl-2-(1-oxoisoindolin-5-yl)piperidin-1-yl)-2-oxoacetamido)nicotinamide] | > 500 nM | > 500 nM | > 500 nM | > 1000 nM | > 1000 nM | C (an IC50 ratio of less than 3 fold) | > 10000 nM |
| COc1ncc(NC(=O)C(=O)N2C[C@H](C)CC[C@H]2c2cc(F)c(F)c(F)c2)cc1C(N)=O (single isomer, unassigned) [Compound 742] | 50 to 500 nM | 50 to 500 nM | < 50 nM | > 1000 nM | 100 to 1000 nM | A (an IC50 ratio greater than or equal to 10 fold) | 1000 to 10000 nM |
| C[C@@H]1CC[C@@H](c2ccc3c(c2)C(=O)NC3)N(C(=O)C(=O)Nc2cncc(C(N)=O)c2)C1 (single isomer, unassigned) [Compound 746] | 50 to 500 nM | < 50 nM | < 50 nM | > 1000 nM | 100 to 1000 nM | A (an IC50 ratio greater than or equal to 10 fold) | 1000 to 10000 nM |
| CCc1cc(NC(=O)C(=O)N2C[C@@H](C)CC[C@@H]2c2ccc3[nH]cnc3c2)cnc1N (single isomer, unassigned) [Compound 748] | 50 to 500 nM | < 50 nM | < 50 nM | 100 to 1000 nM | < 100 nM | A (an IC50 ratio greater than or equal to 10 fold) | < 1000 nM |
| COc1ncc(NC(=O)C(=O)N2C[C@H](C)CC[C@H]2c2ccc3c(c2)CNC3=O)cc1C(N)=O (single isomer, unassigned) [Compound 749, 2-methoxy-5-(2-(5-methyl-2-(1-oxoisoindolin-5-yl)piperidin-1-yl)-2-oxoacetamido)nicotinamide] | 50 to 500 nM | 50 to 500 nM | < 50 nM | > 1000 nM | 100 to 1000 nM | A (an IC50 ratio greater than or equal to 10 fold) | 1000 to 10000 nM |
| COc1ncc(NC(=O)C(=O)N2C[C@@H](C)CC[C@@H]2c2ccc3c(c2)CNC3=O)cc1C(N)=O (single isomer, unassigned) [Compound 750, 2-methoxy-5-(2-(5-methyl-2-(1-oxoisoindolin-5-yl)piperidin-1-yl)-2-oxoacetamido)nicotinamide] | > 500 nM | > 500 nM | > 500 nM | > 1000 nM | > 1000 nM | C (an IC50 ratio of less than 3 fold) | > 10000 nM |
| C[C@H]1CC[C@H](c2ccc3c(c2)C(=O)NC3)N(C(=O)C(=O)Nc2cncc(C(N)=O)c2)C1 (single isomer, unassigned) [Compound 751] | > 500 nM | > 500 nM | > 500 nM | > 1000 nM | > 1000 nM | C (an IC50 ratio of less than 3 fold) | > 10000 nM |
| COc1ncc(NC(=O)C(=O)N2C[C@H](C)CC[C@H]2c2ccc(C)nc2)cc1C(N)=O (single isomer, unassigned) [Compound 754] | 50 to 500 nM | 50 to 500 nM | < 50 nM | > 1000 nM | < 100 nM | A (an IC50 ratio greater than or equal to 10 fold) | 1000 to 10000 nM |
